Data on ten compounds can be found in PubChem BioAssay (NCI).

Structures are written as SMILES.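 Exposure lasted 48 hours, with cells grown in 96-well plates and compounds tested at five concentrations. GI50 is the concentration that inhibits growth by half. TGI: total growth inhibition.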 The source made the active and inactive calls. Cut-off read from the data, not from the text of the source: active = GI50 below about 0.43 µM; inactive = the rest.

Holding throughout (test): growth of human tumour cells (NCI), 48 h
The test system of assay [1] is RXF 393 renal.
In assay [2] the test system is UACC-257 melanoma.
Assay [3] deals with DU-145 prostate.
Assay [4] has as its system 786-0 renal.
Assay [5] deals with SR leukemia.
Assay [6] concerns KM12 colon.
For assay [7], the system named is HT29 colon.
Assay [8] relates to SF-295 CNS.
For assay [9], the system named is RPMI-8226 leukemia.

As for `COc1ccc(C(=O)C#Cc2cnc(OC)nc2OC)cc1`, the GI50 in assay [1] is 26800 µM; in assay [2] it was 40800 µM; in assay [4], 22000 µM; in assay [5], 12500 µM; in [6] it was 56100 µM; in assay [7] it was 17900 µM. The GI50 in [9] is 40100 µM. The TGI was determined as 5.63 µM in [2]; 4.86 µM in assay [3]; 43100 µM in assay [5]; 11.6 µM in [6]; 24.8 µM in assay [8]; 5.2 µM in [9]. For the same compound, the result in assay [3] and in [8] was inactive.

As for `O=C(O)/C=C(\c1nc2ccc([N+](=O)[O-])cc2[nH]1)c1cc(Cl)ccc1O`, the GI50 in assay [1] is 3.55 µM; in [2], 2.37 µM; in [3] it was 4.12 µM; in assay [4], 3.77 µM; in [5], 3.23 µM; in assay [6], 2.84 µM. In addition, the values for the GI50 in assay [7], in [8] and in assay [9] were 3.51 µM, 3.43 µM and 1.45 µM, respectively. The TGI was 21.2 µM in [1]; 7.15 µM in assay [2]; over 100 µM in assay [3]; 28.3 µM in assay [4]; 18.5 µM in [5]; 17.7 µM in assay [6]. The figures for the TGI in [7], in assay [8] and in assay [9] were 14.4 µM, 20.1 µM and 37.7 µM, respectively.

As for `COc1cc(C(=O)CBr)c(OC)cc1C`, the TGI in [1], in assay [2], in [3], in [4], in [5] and in assay [6] was over 100 µM throughout. The TGI in [7], in [8] and in [9] was over 100 µM throughout.

With `O=C1c2cccc([N+](=O)[O-])c2C(=O)N1c1ncn[nH]1`, the TGI in [1], in assay [2], in assay [3], in assay [4], in assay [5] and in [6] was over 100 µM in each case. For the same compound, the TGI in [7], in assay [8] and in assay [9] was over 100 µM each time.

As to `O=S(=O)(NC1=NCCN1C(=S)SN1CCn2c1nsc2=S)c1cccc(Cl)c1`, the GI50 in [1] was 4.04 µM; in [2], 18.6 µM; in assay [3] it was 22.2 µM; in assay [4], 19.9 µM; in assay [5] it was 4.89 µM; in assay [6], 16.6 µM. The GI50 in assay [7] is 20.5 µM; in assay [8] it was 21.8 µM; in [9] it was 5.05 µM. Further, the TGI amounted to 21.6 µM in assay [1]; 39.5 µM in assay [2]; 64.6 µM in assay [3]; 55.3 µM in [4]; 50.7 µM in [5]; 34.1 µM in assay [6]. The TGI in assay [7] was 74 µM; in assay [8] it was 58.1 µM; in assay [9], over 100 µM.

As to `CS(=O)(=O)CCNCc1ccc(-c2ccc3ncnc(Nc4ccc(OCc5ccccc5)cc4)c3c2)o1`, the GI50 was 4.12 µM in [1]; 4.38 µM in assay [2]; 5.3 µM in assay [3]; 4.35 µM in assay [4]; 5.06 µM in assay [5]; 8.85 µM in assay [6]. The results for the GI50 in assay [7], in assay [8] and in [9] were 3.33 µM, 4.89 µM and 5.38 µM, respectively. Further, the TGI was 10.1 µM in [1]; 8.56 µM in [2]; over 25 µM in assay [3]; 8.73 µM in assay [4]; over 19.9 µM in assay [5]; over 25 µM in assay [6]. Moreover, the TGI in assay [7] is 13.5 µM; in [8] it was 10.8 µM; in assay [9], over 16.8 µM.

Regarding `COc1ccc(N2C(=O)/C(=C/c3ccc(N(CCC#N)CCC#N)cc3C)N=C2c2cc([N+](=O)[O-])ccc2Cl)cc1`, the TGI in assay [1] was over 46.4 µM; in assay [2], over 56.2 µM; in assay [3] it was 34.8 µM; in assay [4] it was 43.7 µM; in assay [5] it was 35.4 µM; in [6] it was 45.8 µM. For the same compound, the TGI is 9.95 µM in assay [7], 5.8 µM in [8] and over 63.1 µM in [9].

For the compound `O=C(Nc1ccc(-c2nc(N3CCOCC3)c3cccn3n2)cc1)Nc1cccnc1`, the GI50 in assay [1] was 0.0345 µM; in assay [2] it was 0.428 µM; in assay [3], 0.212 µM; in [4] it was 0.178 µM; in assay [5], 0.245 µM; in assay [6] it was 0.162 µM. Besides, the values for the GI50 in assay [7], in [8] and in assay [9] were 0.3 µM, 0.102 µM and 0.138 µM, respectively. Moreover, the TGI in assay [1] is 0.359 µM; in assay [2] it was 40.8 µM; in [3], over 100 µM; in [4], 1.98 µM; in assay [5], 15 µM; in assay [6], 16.7 µM. In addition, the TGI in assay [7] is over 100 µM; in [8] it was 0.581 µM; in assay [9], 1.36 µM.

For `O=C(CC1C(=O)NN(c2ccc(Br)cc2)C1=O)c1cc(O)ccc1O` (centres undefined), the GI50 in assay [1] is over 50 µM; in assay [2] it was 19.6 µM; in assay [3] it was 21.2 µM; in assay [4] it was 22.4 µM; in [5], over 50 µM; in assay [6], 9.84 µM. Moreover, the GI50 in assay [7] was 22 µM; in assay [8], 11 µM; in assay [9], 16.5 µM. Further, the TGI in assay [1] is over 50 µM; in assay [2] it was over 50 µM; in assay [3], over 50 µM; in assay [4] it was over 50 µM; in assay [5], over 50 µM; in [6] it was 40.6 µM. Besides, the TGI in assay [7] is over 50 µM; in assay [8], 29.7 µM; in assay [9] it was over 50 µM.

In the case of `O=C(CCc1nnc2sc(-c3ccc(Cl)cc3Cl)nn12)c1nc2ccccc2[nH]1`, the GI50 in assay [1] was 0.394 µM; in assay [2], 1.83 µM; in assay [3], 1.15 µM; in [4] it was 1.48 µM; in [5], 0.301 µM; in assay [6], 1.25 µM. In addition, the GI50 in assay [7] is 0.374 µM; in [8] it was 1.65 µM; in assay [9] it was 0.422 µM. For the same compound, the TGI in assay [1] came out at 1.04 µM; in assay [2], 4.31 µM; in [3] it was 2.38 µM; in assay [4], 2.89 µM; in [6] it was 2.86 µM; in [7] it was 2.01 µM. Further, the TGI in [8] worked out at 5.56 µM; in assay [9], 2.63 µM.
